# Results published in patent publication US11420961B2, “Heterocyclic compounds” (Hoffmann-La Roche Inc., priority 2017, dated 2022).
# pIC50: −log10 of the molar value.
# Target: T1, MAGL (recombinant wild-type) (Homo sapiens, UniProt Q99685)
# T1 sequence (Q99685 1-303): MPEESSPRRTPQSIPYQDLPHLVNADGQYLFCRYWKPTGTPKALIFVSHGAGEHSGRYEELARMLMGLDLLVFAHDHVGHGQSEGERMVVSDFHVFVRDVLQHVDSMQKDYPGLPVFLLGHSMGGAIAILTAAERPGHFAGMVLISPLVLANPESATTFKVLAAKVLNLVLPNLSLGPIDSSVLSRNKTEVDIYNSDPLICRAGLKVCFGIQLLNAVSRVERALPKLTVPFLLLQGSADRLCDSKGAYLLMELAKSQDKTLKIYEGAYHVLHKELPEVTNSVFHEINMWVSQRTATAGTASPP
# Test: 4-NPA assay: MAGL inhibitory activity by hydrolysis of 4-nitrophenylacetate, absorbance at 405 nm
# Assay type: biochemical
# Details: 4-NPA assay (values without footnote [a])
# Experimental: Compounds were profiled for MAGL inhibitory activity by measuring the enzymatic activity of MAGL by following the hydrolysis of 4-nitorphenylacetate resulting in 4-nitrophenol, which absorbs at 405-412 nm (G. G. Muccioli, G. Labar, D M. Lambert, Chem. Bio. Chem. 2008, 9, 2704-2710). This assay is hereinafter abbreviated “4-NPA assay”.
# The 4-NPA assay was carried out in 384 well assay plates (black with clear bottom, non-binding surface treated, Corning Ref. 3655) in a total volume of 40 μL. Compound dilutions were made in 100% DMSO (VWR Chemicals 23500.297) in a polypropylene plate in 3-fold dilution steps to give a final concentration range in the assay from 25 μM to 1.7 nM. 1 μL compound dilutions (100% DMSO) were added to 19 μL MAGL (recombinant wild-type) in assay buffer (50 mM TRIS (GIBCO, 15567-027), 1 mM EDTA (Fluka, 03690-100 ml)). The plate was shaked for 1 min at 2000 rpm (Variomag Teleshake) and then incubated for 15 min at RT. To start the reaction, 20 μL 4-Nitrophenlyacetate (Sigma N-8130) in assay buffer with 6% EtOH was added. The final concentrations in the assay were 1 nM MAGL and 300 μM 4-Nitrophenylacetate. After shaking (1 min, 2000 rpm) and 5 min incubation at RT, the absorbance at 405 nm was measured for a first time (Molecular Devices, SpectraMax Paradigm). A second measurement was then done after incubation for 80 min at RT. From the two measurements, the slope was calculated by substracting the first from the second measurement.
row,Structure (SMILES),pIC50
1,"O=C1COc2ccc(C(=O)N3CCC(C(O)(c4ccccc4)c4ccccc4)CC3)cc2N1 [Example 5, 6-[4-[Hydroxy(diphenyl)methyl]piperidine-1-carbonyl]-4H-1,4-benzoxazin-3-one]",7.82
2,"Cn1cc(C2CCN(C(=O)c3ccc4c(c3)NC(=O)CO4)CC2)c2ccc(Cl)cc21 [Example 30, 6-[4-(6-chloro-1-methylindol-3-yl)piperidine-1-carbonyl]-4H-1,4-benzoxazin-3-one]",7.64
3,"O=C1COc2ccc(C(=O)N3CCC(C(c4ccc(F)cc4)c4ccnc(F)c4)CC3)cc2N1 (single isomer, unassigned) [Example 111, 6-[4-[(R or S)-(4-Fluorophenyl)-(2-fluoro-4-pyridyl)methyl]piperidine-1-carbonyl]-4H-1,4-benzoxazin-3-one]",8.82
4,"Cn1cc(C2CCN(C(=O)c3ccc4c(c3)NC(=O)CO4)CC2)c2cc(Cl)c(F)cc21 [Example 27, 6-[4-(5-chloro-6-fluoro-1-methylindol-3-yl)piperidine-1-carbonyl]-4H-1,4-benzoxazin-3-one]",8.55
5,"COc1cc(C(=O)N2CCC(C(c3ccc(F)cc3)c3ccc(F)cc3)CC2)cc2c1CCC(=O)N2 [Example 100, 7-[4-[Bis(4-fluorophenyl)methyl]piperidine-1-carbonyl]-5-methoxy-3,4-dihydro-1H-quinolin-2-one]",8.19
6,"O=C1COc2ccc(C(=O)N3CCC(c4cn(Cc5cccc(Cl)c5)c5ccccc45)CC3)cc2N1 [Example 35, 6-[4-[l-[(3-chlorophenyl)methyl]indol-3-yl]piperidine-1-carbonyl]-4H-1,4-benzoxazin-3-one]",7.43
7,"O=C1COc2ccc(C(=O)N3CCC(C(c4ccccc4)c4cccc(F)c4)CC3)cc2N1 (centres unmarked) [Example 82, 6-[4-[(3-fluorophenyl)-phenyl-methyl]piperidine-1-carbonyl]-4H-1,4-benzoxazin-3-one]",9.16
8,"COc1ccc(C(c2ccncc2)C2CCN(C(=O)c3ccc4c(c3)NC(=O)CO4)CC2)cc1OC (single isomer, unassigned) [Example 126, 6-[4-[(R or S)-(3,4-Dimethoxyphenyl)-(4-pyridyl)methyl]piperidine-1-carbonyl]-4H-1,4-benzoxazin-3-one]",8.07
9,"O=C1COc2ccc(C(=O)N3CCC([C@@H](c4ccccc4)c4cccc(OCCOCCF)c4)CC3)cc2N1 [Example 67, 6-[4-[(S)-[3-[2-(2-fluoroethoxy)ethoxy]phenyl]-phenyl-methyl]piperidine-1-carbonyl]-4H-1,4-benzoxazin-3-one]",9.19
10,"O=C1COc2ccc(C(=O)N3CCC([C@H](c4ccccc4)c4ccc(OCCF)cc4)CC3)cc2N1 [Example 79, 6-[4-[(R)-[4-(2-fluoroethoxy)phenyl]-phenyl-methyl]piperidine-1-carbonyl]-4H-1,4-benzoxazin-3-one]",8.22
11,"O=C1COc2ccc(C(=O)N3CCC([C@@H](c4ccccc4)c4ccc(F)cc4)CC3)cc2N1 (single isomer, unassigned) [Example 6]",9.05
12,"COc1ccc2[nH]cc(C3CCN(C(=O)c4ccc5c(c4)NC(=O)CO5)CC3)c2c1 [Example 24, 6-[4-(5-methoxy-1H-indol-3-yl)piperidine-1-carbonyl]-4H-1,4-benzoxazin-3-one]",7.70
13,"COc1ccc([C@H](c2ccccc2)C2CCN(C(=O)c3ccc4c(c3)NC(=O)CO4)CC2)cc1OC (single isomer, unassigned) [Example 8]",8.40
14,"O=C1COc2ccc(C(=O)N3CCC(C(c4ccc(F)cc4)c4ccc(OCCOCCF)cc4)CC3)cc2N1 (single isomer, unassigned) [Example 108, 6-[4-[(S or R)-[4-[2-(2-Fluoroethoxy)ethoxy]phenyl]-(4-fluorophenyl)methyl]piperidine-1-carbonyl]-4H-1,4-benzoxazin-3-one]",8.02
15,"O=C1COc2ccc(C(=O)N3CCC(c4c[nH]c5ccc(F)cc45)CC3)cc2N1 [Example 22, 6-[4-(5-fluoro-1H-indol-3-yl)piperidine-1-carbonyl]-4H-1,4-benzoxazin-3-one]",8.08
16,"O=C1COc2ccc(C(=O)N3CCC(C(c4ccc(F)cc4)c4ccc(OCCOCCF)cc4)CC3)cc2N1 (single isomer, unassigned) [Example 107, 6-[4-[(R or S)-[4-[2-(2-Fluoroethoxy)ethoxy]phenyl]-(4-fluorophenyl)methyl]piperidine-1-carbonyl]-4H-1,4-benzoxazin-3-one]",9.70

row,Structure (SMILES),pIC50
1,"O=C1COc2ccc(C(=O)N3CCC(c4csc5ccccc45)CC3)cc2N1 [Example 42, 6-[4-(1-benzothiophen-3-yl)piperidine-1-carbonyl]-4H-1,4-benzoxazin-3-one]",7.01
2,"COc1ccc([C@H](c2ccccc2)C2CCN(C(=O)c3ccc4c(c3)NC(=O)CO4)CC2)cc1 (single isomer, unassigned) [Example 10]",8.72
3,"CS(=O)(=O)c1cccc(C(c2ccccc2)C2CCN(C(=O)c3ccc4c(c3)NC(=O)CO4)CC2)c1 (single isomer, unassigned) [Example 128, 6-[4-[(S or R)-(3-Methylsulfonylphenyl)-phenyl-methyl]piperidine-1-carbonyl]-4H-1,4-benzoxazin-3-one]",9.22
4,"O=C1COc2ccc(C(=O)N3CCC(C(c4ccccc4)c4ccc(OCCOCCF)cc4)CC3)cc2N1 (single isomer, unassigned) [Example 97, 6-[4-[(R or S)-[4-[2-(2-Fluoroethoxy)ethoxy]phenyl]-phenyl-methyl]piperidine-1-carbonyl]-4H-1,4-benzoxazin-3-one]",8.13
5,"COc1cccc(C(c2ccc(F)cc2)C2CCN(C(=O)c3ccc4c(c3)NC(=O)CO4)CC2)c1 (single isomer, unassigned) [Example 121, 6-[4-[(S or R)-(4-Fluorophenyl)-(3-methoxyphenyl)methyl]piperidine-1-carbonyl]-4H-1,4-benzoxazin-3-one]",9.40
6,"Cc1cccc([C@H](c2ccccc2)C2CCN(C(=O)c3ccc4c(c3)NC(=O)CO4)CC2)c1 (single isomer, unassigned) [Example 16]",9.30
7,"O=C1COc2ccc(C(=O)N3CCC(C(c4ccccc4)c4cccc(F)n4)CC3)cc2N1 (single isomer, unassigned) [Example 99, 6-[4-[(R or S)-(6-fluoro-2-pyridyl)-phenyl-methyl]piperidine-1-carbonyl]-4H-1,4-benzoxazin-3-one]",8.59
8,"COc1ccc([C@@H](c2ccccc2)C2CCN(C(=O)c3ccc4c(c3)NC(=O)CO4)CC2)cc1OC (single isomer, unassigned) [Example 9]",9.52
9,"O=C1COc2ccc(C(=O)N3CCN(c4ccc(Cl)c(Cl)c4)CC3)cc2N1 [Example 86, 6-[4-(3,4-dichlorophenyl)piperazine-1-carbonyl]-4H-1,4-benzoxazin-3-one]",6.21
10,"O=C1COc2ccc(C(=O)N3CCC(C(c4ccccc4)c4cccnc4F)CC3)cc2N1 (centres unmarked) [Example 78, 6-[4-[(2-fluoro-3-pyridyl)-phenyl-methyl]piperidine-1-carbonyl]-4H-1,4-benzoxazin-3-one]",8.74
11,"COc1cc(C(=O)N2CCC(C(c3ccccc3)c3ccccc3)CC2)cc2c1CCC(=O)N2 [Example 101, 7-(4-Benzhydrylpiperidine-1-carbonyl)-5-methoxy-3,4-dihydro-1H-quinolin-2-one]",8.57
12,"O=C1COc2ccc(C(=O)N3CCC(C(c4ccccc4)c4ccc(F)nc4)CC3)cc2N1 (single isomer, unassigned) [Example 102, 6-[4-[(S or R)-(6-Fluoro-3-pyridyl)-phenyl-methyl]piperidine-1-carbonyl]-4H-1,4-benzoxazin-3-one]",8.46
13,"O=C1CCc2c(cc(C(=O)N3CCC(C(c4ccc(F)cc4)c4ccc(F)cc4)CC3)cc2OCCF)N1 [Example 106, 7-[4-[Bis(4-fluorophenyl)methyl]piperidine-1-carbonyl]-5-(2-fluoroethoxy)-3,4-dihydro-1H-quinolin-2-one]",8.10
14,"O=C1COc2ccc(C(=O)N3CCN(C(c4ccccc4)c4ccccc4)CC3)cc2N1 [Example 83, 6-(4-benzhydrylpiperazine-1-carbonyl)-4H-1,4-benzoxazin-3-one]",8.51
15,"O=C1COc2ccc(C(=O)N3CCC(C4(c5ccc(Cl)cc5)CCCO4)CC3)cc2N1 (centres unmarked) [Example 53, 6-[4-[2-(4-chlorophenyl)oxolan-2-yl]piperidine-1-carbonyl]-4H-1,4-benzoxazin-3-one]",8.20
16,"O=C1COc2ccc(C(=O)N3CCC(C(c4ccc(F)cc4)c4ccc(F)cc4)CC3)cc2N1 [Example 3, 6-[4-[Bis(4-fluorophenyl)methyl]piperidine-1-carbonyl]-4H-1,4-benzoxazin-3-one]",8.69
